From the supplement of paper PMC8960247
Where a name gives a salt, the structure may show the parent alone. ± gives the standard error.

Legend:
621-102 (TSC2-deficient) = assay: relative viability vs DMSO; higher = less cytotoxic; conditions: serum: 10% FBS, 72 h
621-103 (TSC2-rescued) = assay: as above; conditions: serum: 10% FBS, 72 h
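Also: immortalized renal angiomyolipoma cells stably carrying empty vector or TSC2, dosed in 384-well plates in DMEM, viability normalized to vehicle-treated wells within each plate.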

Row | SMILES | relative viability (621-102 (TSC2-deficient); 0.0001 µM) [%] | relative viability (621-102 (TSC2-deficient); 0.001 µM) [%] | relative viability (621-102 (TSC2-deficient); 0.01 µM) [%] | relative viability (621-102 (TSC2-deficient); 0.1 µM) [%] | relative viability (621-102 (TSC2-deficient); 1 µM) [%] | relative viability (621-102 (TSC2-deficient); 10 µM) [%] | relative viability (621-103 (TSC2-rescued); 0.0001 µM) [%] | relative viability (621-103 (TSC2-rescued); 0.001 µM) [%] | relative viability (621-103 (TSC2-rescued); 0.01 µM) [%] | relative viability (621-103 (TSC2-rescued); 0.1 µM) [%] | relative viability (621-103 (TSC2-rescued); 1 µM) [%] | relative viability (621-103 (TSC2-rescued); 10 µM) [%]
1 | C#CCN(C)[C@H](C)Cc1ccccc1 [Selegiline HCl] | 81.4 ± 7.3 | 80.4 ± 9.2 | 91.8 ± 7.5 | 102 ± 1.1 | 95.7 ± 3 | 88.1 ± 1.8 | 95.9 ± 3.1 | 92.55 ± 0.61 | 100 ± 1.2 | 109 ± 2.5 | 102 ± 3.7 | 79.5 ± 0.86
2 | CC(C)[C@H](O)C(=O)N[C@@H](C)C(=O)N[C@@H]1C(=O)N(C)CCc2ccccc21 [Semagacestat] | 117 ± 2.5 | 118 ± 4.2 | 121.4 ± 0.8 | 117 ± 2 | 118 ± 1.6 | 116 ± 2.2 | 102 ± 2.3 | 98.71 ± 0.85 | 101 ± 1.2 | 102.5 ± 0.4 | 102 ± 1.2 | 103 ± 1.7
3 | N[C@@H](CC(=O)N1CCn2c(nnc2C(F)(F)F)C1)Cc1cc(F)c(F)cc1F [Sitagliptin phosphate] | 98.7 ± 0.22 | 104.4 ± 0.16 | 103 ± 2.5 | 94 ± 4.4 | 96.2 ± 1.3 | 91.46 ± 0.51 | 97.02 ± 0.71 | 97.6 ± 1.3 | 98.68 ± 0.34 | 100 ± 2 | 98.8 ± 2.4 | 101 ± 0.53
4 | CNC(=O)c1cc(Oc2ccc(NC(=O)Nc3ccc(Cl)c(C(F)(F)F)c3)cc2)ccn1 [Sorafenib Tosylate] | 90.38 ± 0.54 | 99.7 ± 5.4 | 113 ± 6.4 | 110.1 ± 0.44 | 127 ± 1.7 | 82.2 ± 13 | 97.89 ± 0.32 | 102 ± 2 | 106 ± 1.2 | 102 ± 1.9 | 102 ± 1.6 | 44.5 ± 3.4
5 | CC(C)NCC(O)c1ccc(NS(C)(=O)=O)cc1 (stereo not given) [Sotalol HCl] | 79.7 ± 5.2 | 99.6 ± 3.7 | 108.1 ± 1 | 115 ± 6.1 | 114 ± 2.9 | 107 ± 6.9 | 92 ± 1.4 | 115 ± 2 | 113 ± 1.3 | 118 ± 5.8 | 118 ± 1.5 | 108 ± 1.7
6 | Cc1cn([C@H]2C=C[C@@H](CO)O2)c(=O)[nH]c1=O [Stavudine] | 75.4 ± 3.2 | 76.7 ± 0.81 | 81.206 ± 0.072 | 89.1 ± 8.5 | 83.4 ± 2.3 | 71.2 ± 1.9 | 105 ± 1.2 | 99.6 ± 5.1 | 110 ± 5.4 | 109 ± 5.7 | 93.2 ± 2.2 | 91.2 ± 1.3
7 | Cc1cc(NS(=O)(=O)c2ccc(N)cc2)no1 [Sulfamethoxazole] | 105 ± 5.2 | 104 ± 3.8 | 104.66 ± 0.095 | 97.02 ± 0.95 | 101.8 ± 0.93 | 97.2 ± 2 | 96.09 ± 0.3 | 102 ± 2.2 | 101 ± 3.9 | 101 ± 4.7 | 99.4 ± 6 | 101 ± 1.7
8 | Nc1ccc(S(N)(=O)=O)cc1 [Sulfanilamide] | 94.3 ± 1.1 | 108 ± 5.2 | 97.7 ± 2.6 | 99 ± 1.8 | 99.8 ± 2.5 | 92.9 ± 1.2 | 102 ± 3.3 | 102 ± 0.77 | 104 ± 1.8 | 106 ± 1.9 | 101 ± 2.4 | 96.1 ± 2.9
9 | CCN(CC)CCNC(=O)c1c(C)[nH]c(/C=C2\C(=O)Nc3ccc(F)cc32)c1C [Sunitinib Malate] | 98.8 ± 6.5 | 110 ± 7 | 107 ± 5.9 | 110 ± 3.6 | 125 ± 4.1 | 71 ± 1.9 | 102 ± 2.3 | 106 ± 1.5 | 105.8 ± 0.65 | 105 ± 1.8 | 103.2 ± 0.44 | 30.5 ± 0.91
10 | Cn1c(=O)c(F)c(Nc2ccc(I)cc2F)c2c(=O)n(C[C@@H](O)CO)cnc21 [TAK-733] | 101 ± 5.3 | 107 ± 2.2 | 101 ± 4.8 | 95.22 ± 0.047 | 67.4 ± 2.4 | 54.3 ± 0.28 | 97.8 ± 5.4 | 84.4 ± 2.9 | 83.5 ± 6 | 84.4 ± 7 | 60.7 ± 6.7 | 51.7 ± 4.3
